Key:
FoxM1 = experiment: Alternative splicing of FoxM1 in SMA Type 1 patient fibroblasts (RT-qPCR); type: cell-based; details: Homo sapiens, Fibroblast, 24 hours, read-out: EC50 for FoxM1 full-length (FL) mRNA
Procedure: FIG. 4: Alternative Splicing of FoxM1 In Vitro • SMA Type 1 patient fibroblasts were treated with RO7034067 for 24 hours, and FoxM1 full-length (FL) and exon 9-lacking (Δ9) mRNAs were analyzed by RT-qPCR. Data represent means±SEM of 6 repetitions and are expressed as fold change vs. untreated controls.
FoxM1, a gene alternatively spliced by other splicing modifier compounds, encodes a cell cycle regulator. […] Increased abundance of the FoxM1A isoform, together with decreased abundance of FoxM1 isoforms lacking exon 9, has the capability to disturb and inhibit cell cycle progression if splicing changes are at a level that is biologically significant. Thus, RO7034067 acts in a similar way on the SMN2 and FoxM1 splicing machinery, but with opposing outcomes with regard to protein function. MADD, a gene involved in apoptosis processes, has also been identified as a secondary splice target.

[1] = Stability of test item formulations; type: physicochemical; details: formulations 0.025 to 5 mg/mL, 2 to 8° C., absence of oxygen (under nitrogen)
Procedure: The test item was formulated as a solution in 10 mM ascorbic acid/0.0064 mg/mL sodium thiosulfate at pH 3. The formulations were stored at 2 to 8° C. with absence of oxygen (under nitrogen), protected from the light in a sealed container. They were allowed to reach room temperature prior to dosing and were stirred on arrival at the animal room and then continuously throughout dosing.

[2] = system: FOXM1B/C transcript variants; experiment: FOXM1B/C mRNA expression in human iPSCs (RT-qPCR); type: cell-based; details: 24 h
Procedure: FIG. 5A-FIG. 5B: Effect of RO7034067 on FOXM1 mRNA expression levels in human and Cynomolgus monkey iPSCs • Cells were treated with RO7034067 for 24 hours, and FOXM1 B/C transcript variants were analyzed by RT-PCR. Data represent means±SEM of 3 repetitions and are expressed as fold change vs. controls. IC50 values are indicated. FIG. 5A. human iPSCs. FIG. 5B. Cynomolgus monkey iPSCs
Human iPSCs (hIPS_Neo_Clone_1) were cultivated in mTeSR1 (Stem Cell Technologies) as standard medium and Cynomolgus monkey iPSCs (cips_54-1285_cFIB_Clone_8) in MT medium supplemented with 10 ng/ml ActivinA and 15 ng/ml FGF2.
For gene expression profiling, stem cells were detached with Accutase (Stem Cell Technologies) and plated in 12 well plates coated with Matrigel (BD Biosciences) in the respective standard medium supplemented with 10 μM Rock inhibitor Y-27632 (Sigma-Aldrich). In order to obtain enough RNA, monkey stem cells were seeded at 15000 cells/cm2 and human stem cells were seeded at 40000 cells/cm2 24 h prior to treatment. Thereafter stem cells were treated for 24 h with serial dilutions (1:5) of test items in fresh, pre-warmed medium in a concentration range from 0.64 nM till ˜10 μM. To stop the experiment, cells were lysed in QiaGen's lysis buffer RLT with beta-mercaptoethanol.
Human and Cynomolgus monkey mRNA expression was measured with customized primer and FAM fluorescently-labeled Universal Probe Library (UPL) probes from Roche or probes from Microsynth containing a 5′ FAM label and a 3′ terminal BlackHole Dark Quencher 1 (BHQ1). The sequences of the primer and FAM labeled probes are listed as follows:
For quantitative Real-Time-PCR, cells cultivated in a 12 well plate and treated with Roche-compounds for 24 h were lysed in 500 ul/well of QiaGen's lysis buffer RLT with beta-mercaptoethanol. Total RNA was extracted with the RNeasy Mini kit combined with DNase treatment on a solid support. RNA integrity was controlled by using Nanodrop absorption spectroscopy and microfluidic capillary array electrophoresis profiles from an Agilent Bioanalyzer
2100. Between 300 ng to 800 ng of total RNA were reverse transcribed with oligo-dT primer and spiked MS2 RNA at 10 ng/uL final concentration using the Transcriptor First Strand cDNA Synthesis Kit (Roche Applied Science #04379012001) following the manufacturer's recommended protocol. The quantitative PCR was performed on a LightCycler 480 qPCR machine using 67.5 ng total RNA derived cDNA as input in a 20 μl mixture containing 1× LightCycler 480 Probes Master, 0.4 μM forward and reverse primers, and 0.2 μM FAM labeled hydrolysis probe. The temperature program consisted of pre-incubation at 95° C. for 10 min, followed by 50 cycles of amplification (95° C. for 10 s, 60° C. for 30 s, 72° C. for 5 s). Negative control reactions were conducted in the absence of cDNA template to confirm absence of cDNA contamination in the master mix. Measurements of Ct (cycle threshold)-values were performed for each sample-mRNA combination. Using the 2-ΔΔCt method (Livak K J et al. Method. Methods. 2001; 25(4):402-8), the data are presented as the fold change in gene expression normalized to an endogenous reference gene and relative to the untreated control. To derive individual ΔCt values, the Ct value for each target mRNA of each sample was normalized to the Ct value of the endogenous reference mRNA of GAPDH (glyceraldehyde-3-phosphate dehydrogenase). The […] was calculated by subtracting the ΔCt value of the vehicle-control group from the respective ΔCt value of each treatment group. Resultant expression ratios (2-ΔΔCt) mirrored treatment-related mRNA expression changes versus vehicle-controls. […] The model to derive the IC50 assumes that the dose response curves has a standard slope, equal to a Hill slope (or slope factor) of −1.0. Model equation: Y=Bottom+(Top-Bottom)/(1+10^((X-Log IC50))); with Y being the response data and X being log 10 concentrations in μM.

FMO3 = biological target: T1, FMO3 (Homo sapiens, UniProt P31513); experiment: Elimination pathway; type: in vitro ADME
T1 sequence (P31513 1-532): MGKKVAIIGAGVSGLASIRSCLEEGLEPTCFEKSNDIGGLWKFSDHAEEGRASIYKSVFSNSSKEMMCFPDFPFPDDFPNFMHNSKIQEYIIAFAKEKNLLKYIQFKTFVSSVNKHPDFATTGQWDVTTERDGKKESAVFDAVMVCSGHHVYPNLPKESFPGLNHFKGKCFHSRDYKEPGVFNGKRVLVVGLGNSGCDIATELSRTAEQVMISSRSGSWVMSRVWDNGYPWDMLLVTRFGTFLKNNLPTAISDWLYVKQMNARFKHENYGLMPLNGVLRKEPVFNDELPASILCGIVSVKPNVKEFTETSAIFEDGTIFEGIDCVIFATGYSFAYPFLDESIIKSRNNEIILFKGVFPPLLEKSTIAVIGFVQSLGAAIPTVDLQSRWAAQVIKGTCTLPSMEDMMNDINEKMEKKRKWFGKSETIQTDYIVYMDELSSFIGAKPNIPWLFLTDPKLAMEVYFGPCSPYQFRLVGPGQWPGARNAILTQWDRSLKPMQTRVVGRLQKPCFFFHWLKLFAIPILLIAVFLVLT

Cc1cn2nc(-c3cc(=O)n4cc(N5CCNC6(CC6)C5)ccc4n3)cc(C)c2n1 [RO7034067, 7-(4,7-diazaspiro[2.5]octan-7-yl)-2-(2,8-dimethylimidazo[1,2-b]pyridazin-6-yl)pyrido[1,2-a]pyrimidin-4-one]
EC50 (FoxM1): 67 ± 32 nM
time formulations were stable [1]: up to 4 weeks
Mean FOXM1B/C relative mRNA expression (2^-ΔΔCt vs control) ([2]; 0.64 nM): 1.115
Mean FOXM1B/C relative mRNA expression (2^-ΔΔCt vs control) ([2]; 3.2 nM): 1.032
Mean FOXM1B/C relative mRNA expression (2^-ΔΔCt vs control) ([2]; 16 nM): 0.898
Mean FOXM1B/C relative mRNA expression (2^-ΔΔCt vs control) ([2]; 80 nM): 0.748
Mean FOXM1B/C relative mRNA expression (2^-ΔΔCt vs control) ([2]; 400 nM): 0.178
Mean FOXM1B/C relative mRNA expression (2^-ΔΔCt vs control) ([2]; 2000 nM): 0.185
Mean FOXM1B/C relative mRNA expression (2^-ΔΔCt vs control) ([2]; 10000 nM): 0.102
IC50 ([2]; iPSC, read-out: IC50 on expression levels of FOXM1B/C): 114 nM
elimination pathway (FMO3): FMO3 participates on the elimination path way

From patent publication US12350273B2, “Treatment of SMA” (Hoffmann-La Roche Inc., priority 2017, dated 2025)
